How the values were obtained:
N. gonorrhoeae = experiment: Kirby-Bauer agar disk diffusion; type: cell-based, Neisseria gonorrhoeae; conditions: Table 1; 6-mm disks, 20 μg test compound, 24 h, triplicate; β-lactamase positive
Experimental: (§1) In this study, a selection of N-methylthio-substituted β-lactams are examined for antimicrobial activity by the Kirby-Bauer disk diffusion method on agar plates. A variety of common Gram-positive and Gram-negative bacteria are tested, including clinical isolates of methicillin-resistant Staphylococcus aureus (MRSA).
(§2) Compound susceptibility measurements are obtained from agar disk diffusion experiments using 6-mm air-dried disks impregnated with 20 μg of the test compound. The values correspond to the average diameters in mm (triplicate experiments) for the zone of growth inhibition observed after 24 h. Staphylococcus aureus (ATCC 25923) and β-lactamase-producing strains of methicillin-resistant Staphylococcus aureus (labeled as MRSA USF652-659) are obtained from Lakeland Regional Medical Center, Lakeland, Fla. Staphylococcus epidermidis, Staphylococcus simulans, Staphylococcus simulans, and Microcossus luteus are clinical isolates from University of South Florida Medical Clinic. Nieserria gonnorhoeae (β-lactamase positive) is obtained from the Tampa Branch State Laboratory. PenG is penicillin G (potassium salt). Table 1 provides the zones of growth inhibition that are observed after 24 hours using the lactams of FIGS. 1A-1I (designated A-I, respectively).

[1] = system: Staphylococcus epidermidis; experiment: Kirby-Bauer agar disk diffusion; type: cell-based; conditions: 6-mm disks, 20 μg test compound
Experimental: as §1, §2
(§3) Of particular interest is the ability of these compounds to retain their effectiveness against penicillin-resistant strains of Staphylococcus aureus, a dangerous hospital-borne pathogen which is becoming difficult to treat with conventional antibiotic therapy. The lactams were screened for antibacterial activity by disk diffusion on agar plates, and the resulting zones of bacterial growth inhibition measured (see Table 3; each lactam is designated by Figure number).
(§4) Table 3: Growth inhibition zones obtained from agar disk diffusion experiments using 6-mm air-dried disks impregnated with 20 μg of the test compound. The values correspond to the average diameters in mm for the zone of growth inhibition observed after 24 hours. Staphylococcus aureus and β-lactamase-producing strains of methicillin-resistant Staphylococcus aureus (labeled MRSA USF652-659) are obtained from a clinical testing laboratory at Lakeland Regional Medical Center, Lakeland, Fla.

Micrococcus luteus = experiment: Kirby-Bauer agar disk diffusion; type: cell-based; conditions: 6-mm disks, 20 μg test compound
Experimental: as §1, §2, §3, §4

[2] = system: Staphylococcus aureus (ATCC 25923); experiment: Kirby-Bauer agar disk diffusion; type: cell-based; conditions: 6-mm disks, 20 μg test compound
Experimental: as §1, §2, §3, §4

[3] = system: S. saprophyticus (ATCC 3552); experiment: Kirby-Bauer agar disk diffusion; type: cell-based, Staphylococcus saprophyticus; conditions: 6-mm disks, 20 μg test compound
Experimental: as §1, §2, §3, §4

MRSA USF657 = experiment: Kirby-Bauer agar disk diffusion; type: cell-based, Staphylococcus aureus; conditions: 6-mm disks, 20 μg test compound
Method in brief: (§5)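 Read-out is the mean diameter (mm, n=3) of the zone without bacterial growth 24 h after applying a 6-mm disk carrying 20 μg of compound to an agar plate of β-lactamase-producing MRSA.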

MRSA USF656 = experiment: Kirby-Bauer agar disk diffusion; type: cell-based, Staphylococcus aureus; conditions: 6-mm disks, 20 μg test compound
Method in brief: as §5

MRSA USF654 = experiment: Kirby-Bauer agar disk diffusion; type: cell-based, Staphylococcus aureus; conditions: 6-mm disks, 20 μg test compound
Method in brief: as §5

MRSA USF659 = experiment: Kirby-Bauer agar disk diffusion; type: cell-based, Staphylococcus aureus; conditions: 6-mm disks, 20 μg test compound
Method in brief: as §5

MRSA USF655 = experiment: Kirby-Bauer agar disk diffusion; type: cell-based, Staphylococcus aureus; conditions: 6-mm disks, 20 μg test compound
Method in brief: as §5

MRSA USF652 = experiment: Kirby-Bauer agar disk diffusion; type: cell-based, Staphylococcus aureus; conditions: 6-mm disks, 20 μg test compound
Method in brief: as §5

MRSA USF658 = experiment: Kirby-Bauer agar disk diffusion; type: cell-based, Staphylococcus aureus; conditions: 6-mm disks, 20 μg test compound
Method in brief: as §5

MRSA USF653 = experiment: Kirby-Bauer agar disk diffusion; type: cell-based, Staphylococcus aureus; conditions: 6-mm disks, 20 μg test compound
Method in brief: as §5

S. simulans (ATCC 11631) = experiment: Kirby-Bauer agar disk diffusion; type: cell-based, Staphylococcus simulans; conditions: 6-mm disks, 20 μg test compound
Experimental: as §1, §2, §3, §4

[4] = system: Staphylococcus strains including MRSA; experiment: antibacterial activity screening, results stated in words; type: cell-based, Staphylococcus aureus; conditions: Example 2; all microorganisms tested
From the text: However, the N-alkylthio substituent is required, since reduction to the N—H analogue completely destroys the biological activity. […]
as §3
With the lactam of FIG. 6A serving as a lead structure, other C4-unsaturated derivatives (FIGS. 6B-6E) and C4-saturated analogues (FIGS. 6F-6H), were examined all of which also have activity against Staphylococcus strains including MRSA.
Scheme I summarizes the synthesis of ester compounds 4. 4-Carboxy benzaldehyde (1) is coupled with the appropriate alcohol using DCC/DMAP, followed by reaction with p-anisidine, to give imines 2. Staudinger coupling of methoxyacetyl chloride with imine 2 gives N-aryl protected β-lactam 3. N-Dearylation of β-lactam 3 with ceric ammonium nitrate and methylthiolation with N-(methylthio)phthalimide affords N-methylthio β-lactams 4. These compounds are tested for antibacterial activity by the Kirby-Bauer method of disc diffusion on agar plates. [drawing 7]

Structure (SMILES) | zone of growth inhibition, average diameter (N. gonorrhoeae) [mm] | zone of growth inhibition, average diameter ([1]; Table 1, 24 h, triplicate) [mm] | zone of growth inhibition, average diameter (Micrococcus luteus; Table 1, 24 h, triplicate) [mm] | zone of growth inhibition, average diameter ([2]; Table 1, 24 h, triplicate) [mm] | zone of growth inhibition, average diameter ([3]; Table 1, 24 h, triplicate) [mm] | zone of growth inhibition, average diameter (MRSA USF657; Table 1, 24 h, triplicate) [mm] | zone of growth inhibition, average diameter (MRSA USF656; Table 1, 24 h, triplicate) [mm] | zone of growth inhibition, average diameter (MRSA USF654; Table 1, 24 h, triplicate) [mm] | zone of growth inhibition, average diameter (MRSA USF659; Table 1, 24 h, triplicate) [mm] | zone of growth inhibition, average diameter (MRSA USF655; Table 1, 24 h, triplicate) [mm] | zone of growth inhibition, average diameter (MRSA USF652; Table 1, 24 h, triplicate) [mm] | zone of growth inhibition, average diameter (MRSA USF658; Table 1, 24 h, triplicate) [mm] | zone of growth inhibition, average diameter (MRSA USF653; Table 1, 24 h, triplicate) [mm] | zone of growth inhibition, average diameter (S. simulans (ATCC 11631); Table 1, 24 h, triplicate) [mm] | other results
COC1C(=O)N(SC)C1c1cccs1 (racemic) [Lactam I] | 11 | 28 | 15 | 27 | 20 | 26 | 28 | 27 | 24 | 29 | 28 | 26 | 28 | 0 | 
COC1C(=O)N(SC)C1c1ccccc1C (racemic) [Lactam H] | 12 | 25 | 21 | 23 | 15 | 23 | 25 | 23 | 20 | 23 | 23 | 22 | 27 | 14 | 
COC1C(=O)N2SC(c3ccccc3)=C(I)C12 (centres unmarked) [FIG. 2D] |  |  |  |  |  |  |  |  |  |  |  |  |  |  | antimicrobial activity, in words [4]: no antimicrobial activity; zone of growth inhibition, average diameter ([1]; Table 3, 24 hours): 0 mm; zone of growth inhibition, average diameter (Micrococcus luteus; Table 3, 24 hours): 0 mm; zone of growth inhibition, average diameter ([2]; Table 3, 24 hours): 0 mm; zone of growth inhibition, average diameter ([3]; Table 3, 24 hours): 0 mm; zone of growth inhibition, average diameter (MRSA USF657; Table 3, 24 hours): 0 mm; zone of growth inhibition, average diameter (MRSA USF656; Table 3, 24 hours): 0 mm; zone of growth inhibition, average diameter (MRSA USF654; Table 3, 24 hours): 0 mm; zone of growth inhibition, average diameter (MRSA USF659; Table 3, 24 hours): 0 mm; zone of growth inhibition, average diameter (MRSA USF655; Table 3, 24 hours): 0 mm; zone of growth inhibition, average diameter (MRSA USF652; Table 3, 24 hours): 0 mm; zone of growth inhibition, average diameter (MRSA USF658; Table 3, 24 hours): 0 mm; zone of growth inhibition, average diameter (MRSA USF653; Table 3, 24 hours): 0 mm; zone of growth inhibition, average diameter (S. simulans (ATCC 11631); Table 3, 24 hours): 0 mm
COC1C(=O)N(SC)C1c1cccc([N+](=O)[O-])c1 (racemic) [Lactam E] | 12 | 20 | 22 | 15 | 15 | 18 | 18 | 16 | 11 | 14 | 17 | 17 | 22 | 13 | 
COC1C(=O)N(SC)C1C(C#Cc1ccccc1)OC(C)=O (mixture of isomers) [FIG. 3H] |  |  |  |  |  |  |  |  |  |  |  |  |  |  | antimicrobial activity, in words [4]: inactive; zone of growth inhibition, average diameter ([1]; Table 3, 24 hours): 0 mm; zone of growth inhibition, average diameter (Micrococcus luteus; Table 3, 24 hours): 0 mm; zone of growth inhibition, average diameter ([2]; Table 3, 24 hours): 0 mm; zone of growth inhibition, average diameter ([3]; Table 3, 24 hours): 0 mm; zone of growth inhibition, average diameter (MRSA USF657; Table 3, 24 hours): 0 mm; zone of growth inhibition, average diameter (MRSA USF656; Table 3, 24 hours): 0 mm; zone of growth inhibition, average diameter (MRSA USF654; Table 3, 24 hours): 0 mm; zone of growth inhibition, average diameter (MRSA USF659; Table 3, 24 hours): 0 mm; zone of growth inhibition, average diameter (MRSA USF655; Table 3, 24 hours): 0 mm; zone of growth inhibition, average diameter (MRSA USF652; Table 3, 24 hours): 0 mm; zone of growth inhibition, average diameter (MRSA USF658; Table 3, 24 hours): 0 mm; zone of growth inhibition, average diameter (MRSA USF653; Table 3, 24 hours): 0 mm; zone of growth inhibition, average diameter (S. simulans (ATCC 11631); Table 3, 24 hours): 0 mm
COC1C(=O)N(SC)C1c1ccccc1 (racemic) [Lactam C] | 14 | 31 | 21 | 25 | 22 | 27 | 28 | 26 | 24 | 25 | 30 | 26 | 30 | 14 | 
COC1C(=O)N(SC)C1C#Cc1ccccc1 (racemic) [Lactam A] | 13 | 30 | 23 | 27 | 22 | 30 | 30 | 28 | 25 | 29 | 31 | 27 | 30 | 21 | 
